Measurements reported in ChEMBL document CHEMBL1142045, “Carbonic anhydrase inhibitors. Interaction of isozymes I, II, IV, V, and IX with organic phosphates and phosphonates” (Bioorg Med Chem Lett, 2005).

Columns and labels:
[1] = molecular target: Carbonic anhydrase 1 (Homo sapiens) (UniProt P00915); experiment: Activation constant towards human cytosolic carbonic anhydrase I; Activator
[2] = molecular target: Carbonic anhydrase 5A, mitochondrial (Homo sapiens, UniProt P35218); experiment: Binding affinity towards recombinant human mitochondrial carbonic anhydrase V
Sequence of Carbonic anhydrase 5A, mitochondrial (P35218 whole entry): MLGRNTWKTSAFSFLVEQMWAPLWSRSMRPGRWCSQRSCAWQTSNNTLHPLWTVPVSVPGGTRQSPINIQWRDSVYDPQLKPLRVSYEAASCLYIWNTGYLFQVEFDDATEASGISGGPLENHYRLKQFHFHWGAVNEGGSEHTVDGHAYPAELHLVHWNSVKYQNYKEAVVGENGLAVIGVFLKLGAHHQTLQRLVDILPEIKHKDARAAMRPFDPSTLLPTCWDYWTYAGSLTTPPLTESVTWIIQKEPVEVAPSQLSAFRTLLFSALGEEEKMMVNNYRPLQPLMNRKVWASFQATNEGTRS

Carbonic anhydrase 9 = Carbonic anhydrase 9 (Homo sapiens, UniProt Q16790); experiment: Binding affinity owards recombinant human transmembrane carbonic anhydrase IX
Carbonic anhydrase 2 = Carbonic anhydrase 2 (Homo sapiens, UniProt P00918); experiment: Binding affinity towards human cytosolic carbonic anhydrase II
Carbonic anhydrase 4 = Carbonic anhydrase 4 (Homo sapiens, UniProt P22748); experiment: Binding affinity towards human membrane associated carbonic anhydrase IV
Sequence of Carbonic anhydrase 4 (P22748 whole entry): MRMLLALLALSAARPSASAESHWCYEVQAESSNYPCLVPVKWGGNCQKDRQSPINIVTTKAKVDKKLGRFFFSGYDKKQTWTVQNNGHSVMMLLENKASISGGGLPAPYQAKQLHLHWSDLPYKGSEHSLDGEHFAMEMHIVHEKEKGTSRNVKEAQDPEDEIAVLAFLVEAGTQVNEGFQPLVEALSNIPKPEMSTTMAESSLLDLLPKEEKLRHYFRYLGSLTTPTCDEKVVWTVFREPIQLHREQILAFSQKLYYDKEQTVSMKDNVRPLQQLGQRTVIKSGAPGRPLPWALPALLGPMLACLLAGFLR

Sequence of Carbonic anhydrase 1 (Homo sapiens) (P00915 2-261 limits assumed): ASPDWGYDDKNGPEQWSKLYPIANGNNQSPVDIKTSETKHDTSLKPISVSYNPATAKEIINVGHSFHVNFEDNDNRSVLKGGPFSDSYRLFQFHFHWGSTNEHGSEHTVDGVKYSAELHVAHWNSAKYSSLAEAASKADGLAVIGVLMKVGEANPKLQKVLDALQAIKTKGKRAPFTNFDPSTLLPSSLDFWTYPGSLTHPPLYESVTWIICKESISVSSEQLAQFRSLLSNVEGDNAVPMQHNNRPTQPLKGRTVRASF

| Compound | KA [1] | Ki [2] | Ki (Carbonic anhydrase 9) | Ki (Carbonic anhydrase 2) | Ki (Carbonic anhydrase 4) |
| --- | --- | --- | --- | --- | --- |
| O=C(O)C[C@H](NC(=O)CP(=O)(O)O)C(=O)O [PALA] | 0.1 mM | 370 µM | 2250 µM | 7.8 µM | 0.079 µM |
| CC(OP(=O)(O)O)C(N)C(=O)O (configuration not stated) | 0.5 mM | 850 µM | 1230 µM | 1080 µM | 3180 µM |
| O=P(O)(O)CP(=O)(O)O [MEDRONIC ACID] | 0.2 mM | 730 µM | 860 µM | 1250 µM | 5340 µM |
| N[C@@H](COP(=O)(O)O)C(=O)O [DEXFOSFOSERINE] | 0.1 mM | 360 µM | 920 µM | 420 µM | 4260 µM |
| O=P(O)(O)c1ccccc1 [PHENYLPHOSPHONIC ACID] | 0.0001 mM | 90 µM | 2210 µM | 0.099 µM | 5.4 µM |
| O=C(O)P(=O)(O)O [FOSCARNET] | 0.012 mM | 41700 µM |  |  |  |
